Like-named read-outs stand apart in the source and are kept apart here.
Assays:
Type in all cases: biochemical
[1] = biological target: 320 wild-type protein kinases (Homo sapiens, UniProt P68400); details: singlicate
Excerpt: (§1) Table S4. Profiling of two compounds at two concentrations against 320 wild-type protein kinases; singlicate measurement; Residual activities (% of control).

[2] = biological target: 320 wild-type protein kinases (Homo sapiens, UniProt Q9BYP7); details: kinase WNK3, singlicate
Sequence of 320 wild-type protein kinases (Homo sapiens, UniProt Q9BYP7) (Q9BYP7 whole entry): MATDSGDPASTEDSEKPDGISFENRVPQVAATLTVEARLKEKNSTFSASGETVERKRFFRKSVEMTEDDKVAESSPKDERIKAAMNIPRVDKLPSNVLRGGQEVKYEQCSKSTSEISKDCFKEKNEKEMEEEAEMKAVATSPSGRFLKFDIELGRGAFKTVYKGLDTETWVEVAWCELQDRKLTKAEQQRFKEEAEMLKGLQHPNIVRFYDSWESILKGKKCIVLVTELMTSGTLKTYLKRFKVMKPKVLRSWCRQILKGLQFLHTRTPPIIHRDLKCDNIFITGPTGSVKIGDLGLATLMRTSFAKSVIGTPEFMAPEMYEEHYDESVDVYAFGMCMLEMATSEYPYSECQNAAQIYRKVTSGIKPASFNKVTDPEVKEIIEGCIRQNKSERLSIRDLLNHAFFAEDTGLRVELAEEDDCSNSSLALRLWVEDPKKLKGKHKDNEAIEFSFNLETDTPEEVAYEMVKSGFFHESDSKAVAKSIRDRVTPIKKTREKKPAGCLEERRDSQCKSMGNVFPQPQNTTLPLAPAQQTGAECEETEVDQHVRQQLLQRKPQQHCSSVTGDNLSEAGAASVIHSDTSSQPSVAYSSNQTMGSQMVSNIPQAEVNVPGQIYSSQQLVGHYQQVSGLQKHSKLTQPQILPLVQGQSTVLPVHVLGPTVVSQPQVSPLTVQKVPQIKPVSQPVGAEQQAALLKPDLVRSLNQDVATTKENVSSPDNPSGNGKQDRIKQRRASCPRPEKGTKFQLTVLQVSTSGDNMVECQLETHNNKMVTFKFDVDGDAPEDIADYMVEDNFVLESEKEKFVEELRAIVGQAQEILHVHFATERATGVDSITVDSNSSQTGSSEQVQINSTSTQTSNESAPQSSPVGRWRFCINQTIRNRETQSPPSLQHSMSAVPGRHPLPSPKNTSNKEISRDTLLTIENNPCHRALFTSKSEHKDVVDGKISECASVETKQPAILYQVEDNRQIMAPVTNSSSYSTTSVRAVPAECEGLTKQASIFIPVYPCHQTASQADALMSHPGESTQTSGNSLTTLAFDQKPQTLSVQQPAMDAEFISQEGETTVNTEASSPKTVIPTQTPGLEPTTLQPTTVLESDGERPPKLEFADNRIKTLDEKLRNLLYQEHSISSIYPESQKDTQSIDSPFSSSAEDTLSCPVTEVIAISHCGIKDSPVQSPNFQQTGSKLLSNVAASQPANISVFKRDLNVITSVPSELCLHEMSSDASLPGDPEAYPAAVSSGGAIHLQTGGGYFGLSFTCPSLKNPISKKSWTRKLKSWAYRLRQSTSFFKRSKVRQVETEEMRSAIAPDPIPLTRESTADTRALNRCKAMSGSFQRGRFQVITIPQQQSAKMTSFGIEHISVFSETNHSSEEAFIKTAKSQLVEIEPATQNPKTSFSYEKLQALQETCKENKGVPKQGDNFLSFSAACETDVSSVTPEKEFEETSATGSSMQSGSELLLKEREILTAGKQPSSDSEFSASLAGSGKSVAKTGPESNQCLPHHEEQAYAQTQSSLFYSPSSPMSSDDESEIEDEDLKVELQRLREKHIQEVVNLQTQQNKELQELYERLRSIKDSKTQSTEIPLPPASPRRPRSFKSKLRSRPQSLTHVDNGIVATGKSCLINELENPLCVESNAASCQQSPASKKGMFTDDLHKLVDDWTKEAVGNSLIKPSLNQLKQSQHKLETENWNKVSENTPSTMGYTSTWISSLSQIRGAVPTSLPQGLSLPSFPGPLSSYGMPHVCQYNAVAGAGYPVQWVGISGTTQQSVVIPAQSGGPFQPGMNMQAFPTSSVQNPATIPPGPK
Excerpt: as §1

[3] = biological target: 320 wild-type protein kinases (Homo sapiens, UniProt P45984); details: singlicate
Sequence of 320 wild-type protein kinases (Homo sapiens, UniProt P45984) (P45984 whole entry): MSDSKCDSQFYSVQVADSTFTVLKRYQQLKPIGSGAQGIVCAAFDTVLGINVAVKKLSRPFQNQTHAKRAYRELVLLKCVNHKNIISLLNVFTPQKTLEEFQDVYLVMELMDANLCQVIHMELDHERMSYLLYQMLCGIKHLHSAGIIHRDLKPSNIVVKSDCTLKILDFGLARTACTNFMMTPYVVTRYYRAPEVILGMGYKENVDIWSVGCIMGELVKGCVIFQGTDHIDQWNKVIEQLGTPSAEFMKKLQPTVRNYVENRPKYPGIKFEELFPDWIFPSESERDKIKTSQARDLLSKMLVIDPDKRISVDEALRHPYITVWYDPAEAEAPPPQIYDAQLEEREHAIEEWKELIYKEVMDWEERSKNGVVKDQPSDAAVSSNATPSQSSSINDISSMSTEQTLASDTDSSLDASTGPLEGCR
Excerpt: as §1

[4] = biological target: 320 wild-type protein kinases (Homo sapiens, UniProt P41240); details: CSK, singlicate
Sequence of 320 wild-type protein kinases (Homo sapiens, UniProt P41240) (P41240 whole entry): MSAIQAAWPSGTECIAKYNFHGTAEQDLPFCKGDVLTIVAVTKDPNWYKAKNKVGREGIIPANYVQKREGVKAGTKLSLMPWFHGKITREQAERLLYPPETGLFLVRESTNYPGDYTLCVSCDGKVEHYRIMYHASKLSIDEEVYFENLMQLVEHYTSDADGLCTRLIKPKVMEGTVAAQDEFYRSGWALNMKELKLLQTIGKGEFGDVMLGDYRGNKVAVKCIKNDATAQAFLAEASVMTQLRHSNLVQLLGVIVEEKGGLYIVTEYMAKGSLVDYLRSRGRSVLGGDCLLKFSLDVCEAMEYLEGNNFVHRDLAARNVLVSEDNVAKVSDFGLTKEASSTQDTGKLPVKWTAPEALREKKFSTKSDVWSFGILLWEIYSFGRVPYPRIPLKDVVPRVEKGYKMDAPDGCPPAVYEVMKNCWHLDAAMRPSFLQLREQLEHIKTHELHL
Excerpt: as §1

[5] = biological target: 320 wild-type protein kinases (Homo sapiens, UniProt P17612); details: PKA, singlicate
Excerpt: as §1

[6] = biological target: 320 wild-type protein kinases (Homo sapiens, UniProt Q13557); details: CAMK2D, singlicate
Sequence of 320 wild-type protein kinases (Homo sapiens, UniProt Q13557) (Q13557 whole entry): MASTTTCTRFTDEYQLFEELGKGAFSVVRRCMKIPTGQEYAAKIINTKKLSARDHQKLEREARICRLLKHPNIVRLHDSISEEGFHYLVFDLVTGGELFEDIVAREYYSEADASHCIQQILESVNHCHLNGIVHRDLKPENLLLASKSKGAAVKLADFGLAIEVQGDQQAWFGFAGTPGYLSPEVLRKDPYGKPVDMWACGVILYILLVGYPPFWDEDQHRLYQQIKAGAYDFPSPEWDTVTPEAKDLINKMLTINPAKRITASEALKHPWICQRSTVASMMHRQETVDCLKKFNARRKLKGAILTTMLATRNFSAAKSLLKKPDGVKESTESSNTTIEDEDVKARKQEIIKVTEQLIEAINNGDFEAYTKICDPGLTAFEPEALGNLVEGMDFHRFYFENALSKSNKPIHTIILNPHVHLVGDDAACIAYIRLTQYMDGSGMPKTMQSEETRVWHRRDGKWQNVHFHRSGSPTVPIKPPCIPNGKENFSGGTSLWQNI
Excerpt: as §1

[7] = biological target: 320 wild-type protein kinases (Homo sapiens, UniProt Q14680); details: MELK, singlicate
Sequence of 320 wild-type protein kinases (Homo sapiens, UniProt Q14680) (Q14680 whole entry): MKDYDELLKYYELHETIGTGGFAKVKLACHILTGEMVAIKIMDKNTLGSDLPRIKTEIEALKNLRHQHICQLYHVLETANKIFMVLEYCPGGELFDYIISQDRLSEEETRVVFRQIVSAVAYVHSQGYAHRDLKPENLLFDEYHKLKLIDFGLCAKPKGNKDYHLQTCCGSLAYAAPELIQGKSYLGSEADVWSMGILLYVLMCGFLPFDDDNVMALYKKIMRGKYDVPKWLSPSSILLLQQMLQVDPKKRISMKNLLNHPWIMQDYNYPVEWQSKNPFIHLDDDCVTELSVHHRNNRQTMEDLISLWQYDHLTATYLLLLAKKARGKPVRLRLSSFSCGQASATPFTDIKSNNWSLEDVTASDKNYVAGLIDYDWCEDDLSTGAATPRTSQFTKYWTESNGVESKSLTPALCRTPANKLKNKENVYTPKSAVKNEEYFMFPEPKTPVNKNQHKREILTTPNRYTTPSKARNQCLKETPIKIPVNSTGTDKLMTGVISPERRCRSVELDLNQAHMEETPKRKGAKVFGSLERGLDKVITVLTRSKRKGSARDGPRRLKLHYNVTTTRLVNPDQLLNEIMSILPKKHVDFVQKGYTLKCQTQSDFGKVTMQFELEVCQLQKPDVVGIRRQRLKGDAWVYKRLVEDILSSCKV
Excerpt: as §1

[8] = biological target: T1, 320 wild-type protein kinases (Homo sapiens, UniProt Q8WTQ7); details: singlicate
T1 sequence (Q8WTQ7 1-553): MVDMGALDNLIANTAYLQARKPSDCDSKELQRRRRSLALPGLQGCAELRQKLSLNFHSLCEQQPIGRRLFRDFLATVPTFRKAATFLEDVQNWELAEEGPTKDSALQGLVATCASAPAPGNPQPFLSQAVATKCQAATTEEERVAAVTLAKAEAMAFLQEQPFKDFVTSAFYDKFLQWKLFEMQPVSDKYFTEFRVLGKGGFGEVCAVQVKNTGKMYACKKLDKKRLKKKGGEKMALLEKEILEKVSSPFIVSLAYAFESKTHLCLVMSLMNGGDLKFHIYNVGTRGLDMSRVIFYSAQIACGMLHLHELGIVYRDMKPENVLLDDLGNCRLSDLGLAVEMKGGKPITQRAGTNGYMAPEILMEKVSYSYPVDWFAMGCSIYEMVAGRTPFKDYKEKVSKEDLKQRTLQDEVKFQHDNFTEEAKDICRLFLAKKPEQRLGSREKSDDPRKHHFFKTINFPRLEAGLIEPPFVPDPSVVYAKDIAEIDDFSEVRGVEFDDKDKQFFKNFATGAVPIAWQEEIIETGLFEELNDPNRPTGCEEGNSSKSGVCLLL
Excerpt: as §1

[9] = biological target: 320 wild-type protein kinases (Homo sapiens, UniProt P51957); details: singlicate
Sequence of 320 wild-type protein kinases (Homo sapiens, UniProt P51957) (P51957 whole entry): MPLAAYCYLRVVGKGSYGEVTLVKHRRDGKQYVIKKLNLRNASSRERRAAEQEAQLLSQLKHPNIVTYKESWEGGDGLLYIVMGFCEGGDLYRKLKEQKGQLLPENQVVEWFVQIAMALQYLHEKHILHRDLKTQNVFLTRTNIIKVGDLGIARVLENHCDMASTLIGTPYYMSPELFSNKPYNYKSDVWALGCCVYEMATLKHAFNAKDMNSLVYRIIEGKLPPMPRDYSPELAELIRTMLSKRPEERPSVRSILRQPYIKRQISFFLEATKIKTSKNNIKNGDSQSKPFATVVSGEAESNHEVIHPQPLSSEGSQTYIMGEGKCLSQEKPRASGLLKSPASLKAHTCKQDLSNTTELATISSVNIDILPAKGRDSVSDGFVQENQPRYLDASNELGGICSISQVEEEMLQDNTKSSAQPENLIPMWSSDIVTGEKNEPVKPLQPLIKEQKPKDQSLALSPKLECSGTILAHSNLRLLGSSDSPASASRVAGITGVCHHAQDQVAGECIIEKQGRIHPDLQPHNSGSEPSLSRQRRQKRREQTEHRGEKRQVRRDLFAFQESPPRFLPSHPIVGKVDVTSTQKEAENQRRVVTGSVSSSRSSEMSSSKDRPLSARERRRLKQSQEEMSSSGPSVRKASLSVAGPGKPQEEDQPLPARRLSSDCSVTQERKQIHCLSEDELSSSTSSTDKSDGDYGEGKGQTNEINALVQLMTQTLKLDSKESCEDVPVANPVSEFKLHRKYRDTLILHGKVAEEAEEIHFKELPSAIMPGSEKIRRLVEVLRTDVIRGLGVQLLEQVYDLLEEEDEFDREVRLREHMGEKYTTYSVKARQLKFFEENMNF
Excerpt: as §1

[10] = biological target: T2, 320 wild-type protein kinases (Homo sapiens, UniProt P42681); details: kinase TXK, singlicate
T2 sequence (P42681 1-527): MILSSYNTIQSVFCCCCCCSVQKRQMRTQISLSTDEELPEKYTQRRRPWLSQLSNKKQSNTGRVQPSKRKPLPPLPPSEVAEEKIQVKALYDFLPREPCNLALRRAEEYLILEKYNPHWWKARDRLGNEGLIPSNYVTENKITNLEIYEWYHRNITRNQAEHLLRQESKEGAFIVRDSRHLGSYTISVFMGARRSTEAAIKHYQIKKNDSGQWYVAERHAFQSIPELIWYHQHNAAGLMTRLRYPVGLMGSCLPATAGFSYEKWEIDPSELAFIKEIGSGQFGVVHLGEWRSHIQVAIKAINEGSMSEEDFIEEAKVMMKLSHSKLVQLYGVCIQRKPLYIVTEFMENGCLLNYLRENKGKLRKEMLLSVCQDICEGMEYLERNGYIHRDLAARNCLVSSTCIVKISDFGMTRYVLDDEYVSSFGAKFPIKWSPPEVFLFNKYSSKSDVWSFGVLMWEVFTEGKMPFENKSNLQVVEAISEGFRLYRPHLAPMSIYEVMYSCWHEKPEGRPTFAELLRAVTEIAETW
Excerpt: as §1

[11] = biological target: 320 wild-type protein kinases (Homo sapiens, UniProt P19525); details: singlicate
Excerpt: as §1

[12] = biological target: T3, 320 wild-type protein kinases (Homo sapiens, UniProt O43318); details: singlicate
T3 sequence (O43318 1-606): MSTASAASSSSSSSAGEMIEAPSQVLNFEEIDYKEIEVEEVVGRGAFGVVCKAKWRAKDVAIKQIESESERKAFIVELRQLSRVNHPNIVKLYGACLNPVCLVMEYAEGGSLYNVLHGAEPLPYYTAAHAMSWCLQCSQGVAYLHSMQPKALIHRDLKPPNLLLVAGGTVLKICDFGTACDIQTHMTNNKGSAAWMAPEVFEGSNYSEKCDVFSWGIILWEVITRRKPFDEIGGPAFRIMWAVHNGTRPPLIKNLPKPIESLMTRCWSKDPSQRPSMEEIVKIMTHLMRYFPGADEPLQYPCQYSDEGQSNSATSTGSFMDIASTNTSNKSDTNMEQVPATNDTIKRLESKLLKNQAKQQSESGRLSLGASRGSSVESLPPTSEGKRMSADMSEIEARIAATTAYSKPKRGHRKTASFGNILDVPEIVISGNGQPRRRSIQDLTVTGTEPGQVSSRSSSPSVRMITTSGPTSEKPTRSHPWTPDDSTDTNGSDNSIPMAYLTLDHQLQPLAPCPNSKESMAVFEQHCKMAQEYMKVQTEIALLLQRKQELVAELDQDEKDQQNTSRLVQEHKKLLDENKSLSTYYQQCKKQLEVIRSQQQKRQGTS
Excerpt: as §1

[13] = biological target: 320 wild-type protein kinases (Homo sapiens, UniProt Q15746); details: MYLK, singlicate
Excerpt: as §1

Sequence of 320 wild-type protein kinases (Homo sapiens, UniProt P68400) (P68400 whole entry): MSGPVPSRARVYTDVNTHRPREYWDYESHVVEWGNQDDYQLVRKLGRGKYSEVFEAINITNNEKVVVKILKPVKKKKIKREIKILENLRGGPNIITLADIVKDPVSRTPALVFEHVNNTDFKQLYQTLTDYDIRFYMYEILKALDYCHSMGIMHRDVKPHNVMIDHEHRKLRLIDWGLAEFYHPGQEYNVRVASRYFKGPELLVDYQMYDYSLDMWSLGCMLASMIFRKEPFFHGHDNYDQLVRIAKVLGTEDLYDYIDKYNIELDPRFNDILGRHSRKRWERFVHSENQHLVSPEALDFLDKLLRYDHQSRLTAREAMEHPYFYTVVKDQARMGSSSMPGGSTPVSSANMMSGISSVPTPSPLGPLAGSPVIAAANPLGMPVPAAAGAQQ

| SMILES | Residual activity ([1]; CK2-alpha1, 1.0E-06 M) | Residual activity ([1]; CK2-alpha1, 1.0E-07 M) | Residual activity, WNK3 ([2]; assay conc. 1.0E-06 M) | Residual activity, WNK3 ([2]; assay conc. 1.0E-07 M) | Residual activity ([3]; JNK2, 1.0E-06 M) | Residual activity ([3]; JNK2, 1.0E-07 M) | Residual activity ([4]; 1.0E-06 M) | Residual activity ([4]; 1.0E-07 M) | Residual activity ([5]; 1.0E-06 M) | Residual activity ([5]; 1.0E-07 M) | Residual activity ([6]; 1.0E-06 M) | Residual activity ([6]; 1.0E-07 M) | Residual activity ([7]; 1.0E-06 M) | Residual activity ([7]; 1.0E-07 M) | Residual activity ([8]; GRK7, 1.0E-06 M) | Residual activity ([8]; GRK7, 1.0E-07 M) | Residual activity ([9]; NEK4, 1.0E-06 M) | Residual activity ([9]; NEK4, 1.0E-07 M) | Residual activity, TXK ([10]; assay conc. 1.0E-06 M) | Residual activity, TXK ([10]; assay conc. 1.0E-07 M) | further results |
| --- | --- | --- | --- | --- | --- | --- | --- | --- | --- | --- | --- | --- | --- | --- | --- | --- | --- | --- | --- | --- | --- |
| C#Cc1cc(Nc2ncnc3cc(I)ccc23)ccc1Cl [Compound 41] | 99 % of control | 104 % of control | 115 % of control | 118 % of control | 116 % of control | 110 % of control | 92 % of control | 110 % of control | 82 % of control | 88 % of control | 89 % of control | 103 % of control | 92 % of control | 101 % of control | 116 % of control | 124 % of control | 94 % of control | 100 % of control | 79 % of control | 90 % of control | Residual activity ([11]; EIF2AK2, 1.0E-06 M): 58 % of control; Residual activity ([11]; EIF2AK2, 1.0E-07 M): 72 % of control; Residual activity ([12]; MAP3K7/MAP3K7IP1, 1.0E-06 M): 87 % of control; Residual activity ([12]; MAP3K7/MAP3K7IP1, 1.0E-07 M): 98 % of control; Residual activity ([13]; 1.0E-06 M): 58 % of control; Residual activity ([13]; 1.0E-07 M): 98 % of control |
| C#Cc1cc(Nc2ncnc3cc(OC)c(OC)cc23)ccc1Cl [Compound 45] | 101 % of control | 109 % of control | 105 % of control | 124 % of control | 120 % of control | 115 % of control | 92 % of control | 106 % of control | 90 % of control | 93 % of control | 95 % of control | 91 % of control | 101 % of control | 109 % of control | 121 % of control | 115 % of control | 84 % of control | 106 % of control | 52 % of control | 91 % of control | Residual activity ([11]; EIF2AK2, 1.0E-06 M): 77 % of control; Residual activity ([11]; EIF2AK2, 1.0E-07 M): 77 % of control; Residual activity ([12]; MAP3K7/MAP3K7IP1, 1.0E-06 M): 79 % of control; Residual activity ([12]; MAP3K7/MAP3K7IP1, 1.0E-07 M): 81 % of control; Residual activity ([13]; 1.0E-06 M): 71 % of control; Residual activity ([13]; 1.0E-07 M): 92 % of control |

Reference: PMC9329436, “Optimization of the 4-anilinoquin(az)oline scaffold as epidermal growth factor receptor (EGFR) inhibitors for chordoma utilizing a toxicology profiling assay platform” (Scientific Reports, 2022)
